Test results published in patent US20250152585A1, “PHARMACEUTICAL COMPOUND” (Duke Street Bio Limited, priority 2022, published 2025).
Read-outs that look alike come from different tables or passages of the source.

Legend:
[1] = molecular target: T1, N-terminally FLAG-tagged PARP2 (amino acids 1-583) (Homo sapiens, UniProt Q9UGN5); assay: PARP2 probe displacement HTRF assay; type: binding; settings: binned Kd
T1 construct: N-terminally FLAG-tagged PARP2 (amino acids 1-583)
Protocol: Data analysis was performed identical as for PARP1.

[2] = molecular target: T2, full length N-terminally FLAG-tagged PARP1 (Homo sapiens, UniProt P09874); assay: PARP1 probe displacement HTRF assay; settings: for Selectivity: PARP1 over PARP2, ratio Kd (PARP2)/Kd (PARP1); for Kd: binned Kd
T2 sequence (P09874 whole entry): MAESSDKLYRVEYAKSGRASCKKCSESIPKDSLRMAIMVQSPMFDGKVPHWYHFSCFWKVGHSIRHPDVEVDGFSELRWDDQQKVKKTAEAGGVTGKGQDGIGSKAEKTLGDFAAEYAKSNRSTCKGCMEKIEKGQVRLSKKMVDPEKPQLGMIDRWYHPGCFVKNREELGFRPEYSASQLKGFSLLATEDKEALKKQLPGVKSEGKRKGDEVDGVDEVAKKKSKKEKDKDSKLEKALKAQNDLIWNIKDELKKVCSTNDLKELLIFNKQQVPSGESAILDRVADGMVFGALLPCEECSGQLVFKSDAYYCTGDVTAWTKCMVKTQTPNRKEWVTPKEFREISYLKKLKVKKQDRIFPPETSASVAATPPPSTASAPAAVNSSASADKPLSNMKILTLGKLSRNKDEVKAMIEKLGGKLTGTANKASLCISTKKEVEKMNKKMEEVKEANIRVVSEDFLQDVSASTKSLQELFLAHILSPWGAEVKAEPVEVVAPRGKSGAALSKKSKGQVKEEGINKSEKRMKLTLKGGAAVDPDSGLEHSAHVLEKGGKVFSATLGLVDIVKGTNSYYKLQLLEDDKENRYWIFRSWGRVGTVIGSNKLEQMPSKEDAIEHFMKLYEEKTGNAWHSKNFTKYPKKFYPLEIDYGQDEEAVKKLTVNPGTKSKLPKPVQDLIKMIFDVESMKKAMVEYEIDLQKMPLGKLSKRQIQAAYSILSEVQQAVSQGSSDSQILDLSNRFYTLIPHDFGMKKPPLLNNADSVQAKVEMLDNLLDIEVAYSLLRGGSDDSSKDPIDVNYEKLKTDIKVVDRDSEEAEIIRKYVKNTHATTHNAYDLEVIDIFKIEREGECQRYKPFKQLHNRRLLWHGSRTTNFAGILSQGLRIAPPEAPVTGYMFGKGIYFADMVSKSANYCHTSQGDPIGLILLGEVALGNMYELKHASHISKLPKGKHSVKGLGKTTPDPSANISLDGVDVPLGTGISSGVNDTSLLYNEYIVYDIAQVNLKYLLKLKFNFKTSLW

[3] = molecular target: T2, full length N-terminally FLAG-tagged PARP1; assay: PARP1 biochemical DELFIA assay (auto-PARylation); set-up: recombinant full length human N-terminally FLAG-tagged PARP1
[4] = read-out: PARP1 HTRF, PARP1 probe displacement HTRF
[5] = binned IC50, PARP1 biochemical DELFIA assay
[6] = read-out: PARP1 HTRF, probe displacement HTRF
[7] = binned IC50, biochemical auto-PARylation assay

T1 sequence (Q9UGN5 whole entry, the tested form may be a part): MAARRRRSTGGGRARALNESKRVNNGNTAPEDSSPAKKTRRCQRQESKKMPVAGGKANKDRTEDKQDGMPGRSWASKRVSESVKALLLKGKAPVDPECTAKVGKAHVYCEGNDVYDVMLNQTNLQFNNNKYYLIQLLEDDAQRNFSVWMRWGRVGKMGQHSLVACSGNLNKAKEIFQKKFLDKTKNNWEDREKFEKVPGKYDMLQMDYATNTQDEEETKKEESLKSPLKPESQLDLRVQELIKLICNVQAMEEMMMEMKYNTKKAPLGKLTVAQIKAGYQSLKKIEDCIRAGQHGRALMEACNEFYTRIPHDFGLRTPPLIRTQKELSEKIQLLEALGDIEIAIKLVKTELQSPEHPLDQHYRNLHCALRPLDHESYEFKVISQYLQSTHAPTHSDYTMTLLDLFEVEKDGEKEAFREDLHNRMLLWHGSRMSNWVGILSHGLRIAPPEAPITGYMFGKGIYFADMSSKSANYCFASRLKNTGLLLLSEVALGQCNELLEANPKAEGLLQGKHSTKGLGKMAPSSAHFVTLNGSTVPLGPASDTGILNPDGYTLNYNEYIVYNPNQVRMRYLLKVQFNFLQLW

Kd ([1]; PARP2 probe displacement HTRF) [nM]	Kd [2, 4] [nM]	IC50 [3, 5] [nM]	Kd ([1]; probe displacement HTRF) [nM]	Kd [2, 6] [nM]	IC50 [3, 7] [nM]	Kd ([2]; PARP1 HTRF, PARP1 probe displacement HTRF) [nM]	Kd ([2]; PARP1 HTRF, probe displacement HTRF) [nM]	SMILES	Selectivity ([2]; probe displacement HTRF)
100 to 1000	< 10	< 10						CNC(=O)c1ccc(N2CCC(N3CCC(c4ccc(CC(F)(F)F)c(=O)[nH]4)C3)CC2)cn1 (single isomer, unassigned) [Compound 188b]	+++ (+++ indicate a value of at least 100)
> 10000	1000 to 10000	1000 to 10000						CNC(=O)c1ccc(N2CCC(N3CCCC(c4nc5ccncc5c(=O)[nH]4)C3)CC2)cn1 (single isomer, unassigned) [Compound 93b]	− (− indicates a value of less than 10)
			100 to 1000	10 to 100	10 to 100			CNC(=O)c1ccc(N2CCC(N3CCC(c4nc5sc(C)c(C)c5c(=O)[nH]4)C3)CC2)cn1 (single isomer, unassigned) [Compound 221a]	+ (+ indicates a value of 10 to less than 50)
100 to 1000	< 10	< 10						CNC(=O)c1ccc(N2CCC(N3CCC(c4nc5c(c(=O)[nH]4)CCCC5)C3)CC2)cn1 (single isomer, unassigned) [Compound 155b]	+++ (+++ indicate a value of at least 100)
< 10	< 10	< 10						CNC(=O)c1ccc(N2CCC(N3CCC(c4nc5c(c(C(F)(F)F)nn5C)c(=O)[nH]4)C3)CC2)cn1 (single isomer, unassigned) [Compound 187b]	− (− indicates a value of less than 10)
			> 10000	10 to 100	10 to 100			CNC(=O)c1ncc(N2CCC(N3CCC(c4cc5ccc(F)cc5c(=O)[nH]4)C3)CC2)c(C(F)(F)F)n1 (single isomer, unassigned) [Compound 266b]	+++ (+++ indicate a value of at least 100)
			100 to 1000	< 10	< 10			CNC(=O)c1ccc(N2CCC(N3CCC(c4cc5ncc(F)cc5c(=O)[nH]4)C3)CC2)c(F)n1 (single isomer, unassigned) [Compound 324b]	+++ (+++ indicate a value of at least 100)
			> 10000	1000 to 10000	1000 to 10000			CNC(=O)c1ccc(N2CCC(N3CCC(c4ccc(CCOC)c(=O)[nH]4)C3)CC2)cn1 (single isomer, unassigned) [Compound 240b]	− (− indicates a value of less than 10)
> 10000	100 to 1000	10 to 100						CNC(=O)c1ccc(N2CCC(N3CCC(c4nc5onc(C(F)(F)F)c5c(=O)[nH]4)C3)CC2)cn1 (single isomer, unassigned) [Compound 176b]	++ (++ indicates a value of 50 to less than 100)
100 to 1000	< 10	< 10						O=C(NCC(F)(F)F)c1ccc(N2CCC(N3CCC(c4nc5ccccc5c(=O)[nH]4)C3)CC2)cn1 (single isomer, unassigned) [Compound 130a]	+ (+ indicates a value of 10 to less than 50)
			100 to 1000	< 10	< 10			CNC(=O)c1cc(Cl)c(N2CCC(N3CCC(c4cc5cccc(F)c5c(=O)[nH]4)C3)CC2)cn1 (racemic) [Compound 248rac]	+++ (+++ indicate a value of at least 100)
1000 to 10000	< 10	10 to 100						CNC(=O)c1ccc(N2CCC(N3CCC(c4nc5cc(F)ccc5c(=O)[nH]4)C3)CC2)cn1 (single isomer, unassigned) [Compound 92b]	+++ (+++ indicate a value of at least 100)
			> 10000	10 to 100	10 to 100			CNC(=O)c1ccc(N2CCC(N3CCC(c4cnc(CC(F)(F)F)c(=O)[nH]4)C3)CC2)cn1 (single isomer, unassigned) [Compound 287a]	++ (++ indicates a value of 50 to less than 100)
10 to 100	< 10	< 10						CNC(=O)c1ccc(N2CCC(N3CCCC(c4nc5c(c(C(F)(F)F)nn5C)c(=O)[nH]4)C3)CC2)cn1 (single isomer, unassigned) [Compound 190b]	++ (++ indicates a value of 50 to less than 100)
> 10000	< 10	< 10						CNC(=O)c1ccc(N2CCC(N3CCC(c4ccc(COC)c(=O)[nH]4)C3)CC2)cn1 (single isomer, unassigned) [Compound 207a]	+++ (+++ indicate a value of at least 100)

Continued, compound first:

SMILES	Kd ([1]; PARP2 probe displacement HTRF) [nM]	Kd [2, 4] [nM]	IC50 [3, 5] [nM]	Kd ([1]; probe displacement HTRF) [nM]	Kd [2, 6] [nM]	IC50 [3, 7] [nM]	Kd ([2]; PARP1 HTRF, PARP1 probe displacement HTRF) [nM]	Kd ([2]; PARP1 HTRF, probe displacement HTRF) [nM]	Selectivity ([2]; probe displacement HTRF)
CNC(=O)c1ccc(N2CCC(N3CCC(c4cc5cccc(F)c5c(=O)[nH]4)C3)CC2)c(F)c1 (single isomer, unassigned) [Compound 371a]				10 to 100	< 10	< 10			+++ (+++ indicate a value of at least 100)
CNC(=O)c1ccc(N2CCC(N3CCC(c4cc5cccc(F)c5c(=O)[nH]4)C3)CC2)c(F)c1 (single isomer, unassigned) [Compound 371b]				1000 to 10000	10 to 100	10 to 100			++ (++ indicates a value of 50 to less than 100)
CNC(=O)c1ccc(N2CCC(N3CCC(c4nc5ccccc5c(=O)[nH]4)C3)CC2)nc1 (single isomer, unassigned) [Compound 46b]	100 to 1000	100 to 1000	100 to 1000						− (− indicates a value of less than 10)
CNC(=O)c1ccc(N2CC(CN3CCC(c4nc5ccccc5c(=O)[nH]4)CC3)C2)cn1 [Compound 45]	100 to 1000		< 10				< 10		+++ (+++ indicate a value of at least 100)
N#Cc1nc(C(=O)NC2CC2)ccc1N1CCC(N2CCC(c3cc4cccc(F)c4c(=O)[nH]3)C2)CC1 (single isomer, unassigned) [Compound 410b]				100 to 1000	< 10	< 10			+++ (+++ indicate a value of at least 100)
CNC(=O)c1ccc(N2CCC(N3CCC(c4cc5cccc(F)c5c(=O)[nH]4)C3)CC2)nn1 (single isomer, unassigned) [Compound 209b]	1000 to 10000	10 to 100	10 to 100						+++ (+++ indicate a value of at least 100)
CNC(=O)c1ccc(N2CCC(N3CCCC(c4nc5ccccc5c(=O)[nH]4)C3)CC2)c(C)n1 (single isomer, unassigned) [Compound 131a]	1000 to 10000	100 to 1000	10 to 100						+ (+ indicates a value of 10 to less than 50)
CNC(=O)c1ncc(N2CCC(N3CCC(c4cc5ccc(F)cc5c(=O)[nH]4)C3)CC2)cc1F (single isomer, unassigned) [Compound 395b]				10 to 100	< 10	< 10			++ (++ indicates a value of 50 to less than 100)
CNC(=O)c1ccc(N2CCC(N3CC4(c5nc6ncccc6c(=O)[nH]5)CC3C4)CC2)c(F)n1 [Compound 303]				> 10000		< 10		< 10	+++ (+++ indicate a value of at least 100)
CNC(=O)c1ccc(N2CCC(N3CCCC(c4nc5ccccc5c(=O)[nH]4)CC3)CC2)cn1 (racemic) [Compound 102rac]	1000 to 10000	< 10	< 10						+++ (+++ indicate a value of at least 100)
CNC(=O)c1ccc(N2CCC(N3CCC(c4cc5ccc(F)cc5c(=O)[nH]4)C3)CC2)c(Cl)n1 (single isomer, unassigned) [Compound 223a]				100 to 1000	< 10	< 10			+++ (+++ indicate a value of at least 100)
CCc1ccc(C2CCN(C3CCN(c4ccc(C(=O)NCCF)nc4F)CC3)C2)[nH]c1=O (single isomer, unassigned) [Compound 322a]				> 10000	< 10	< 10			+++ (+++ indicate a value of at least 100)
CCc1nc(C(=O)NC)ccc1N1CCC(N2CCCC(c3nc4ccccc4c(=O)[nH]3)C2)CC1 (single isomer, unassigned) [Compound 112a]	1000 to 10000	100 to 1000	100 to 1000						− (− indicates a value of less than 10)
CS(=O)(=O)NC(=O)c1ccc(N2CCC(N3CCC(c4cc5ccccc5c(=O)[nH]4)C3)CC2)cc1 (single isomer, unassigned) [Compound 342b]				10 to 100	< 10	< 10			+ (+ indicates a value of 10 to less than 50)
CCc1ccc(C2CCN(C3CCN(c4ccc(C#N)cn4)CC3)C2)[nH]c1=O (single isomer, unassigned) [Compound 332b]				1000 to 10000	< 10	< 10			+++ (+++ indicate a value of at least 100)
O=C(NC1CC1)c1ccc(N2CCC(N3CCC(c4cc5cccc(F)c5c(=O)[nH]4)C3)CC2)c(F)n1 (single isomer, unassigned) [Compound 349a]				> 10000	< 10	< 10			+++ (+++ indicate a value of at least 100)
N#Cc1ccc(N2CCC(N3CCC(c4cc5cccc(F)c5c(=O)[nH]4)C3)CC2)nc1 (single isomer, unassigned) [Compound 340b]				100 to 1000	10 to 100	10 to 100			+ (+ indicates a value of 10 to less than 50)
